# Test results from patent publication US7575930B2, “Method for analyzing oligosaccharides from blood plasma” (priority 2005, dated 2009).
# Columns and labels:
# [1] = Monitoring of the plasma concentration of the main oligosaccharides of a VLMWH in human volunteers (plasma filtration + anion-exchange HPLC); format: in vivo
# Protocol: (§1) A plasma sample with a volume of between 100 and 1000 μl is withdrawn and, if appropriate, the internal standard is added to the latter.
# (§2) After homogenization, the resulting solution is introduced into a 30 kD Ultrafree 05 ultrafiltration cartridge (Millipore) rinsed beforehand with 250 μl of water by centrifuging at 10 000 rev/min for 5 minutes. The plasma is introduced into the upper part of the cartridge once or twice, if the amounts to be filtered are greater than 500 μl.
# (§3) The cartridge is centrifuged at 10 000 rev/min for between 1 and 2 hours and then the filtrate is withdrawn. If appropriate, the second part of the plasma to be filtered is introduced into the upper part of the cartridge and the latter is again centrifuged. The exact amount of plasma introduced will have been weighed. The cartridge is centrifuged until the protein residue in the upper part of the cartridge represents no more than approximately 10% of the initial part.
# (§4) The filtrate is withdrawn and 210 μl of 3M KCl per ml of plasma filtered are added to the concentrate.
# (§5) After homogenization, the cartridge is centrifuged at 10 000 rev/min for between 1 and 4 hours. The cartridge is centrifuged until the protein residue in the upper part of the cartridge represents no more than approximately 10% of the initial part.
# (§6) The second filtrate is withdrawn and 210 μl of 3M KCl per ml of plasma filtered are added a second time to the concentrate.
# (§7) The third filtrate is withdrawn and 250 μl of water per ml of plasma filtered are added.
# (§8) The filtrates are combined and diluted 5 fold in water, and the whole is injected directly in anion-exchange HPLC. Immediately before injection, the pH of the injected solution is adjusted to 3 by addition of 1N HCl.
# (§9) The filtered plasma is analyzed by anion-exchange HPLC.
# (§10) The columns used are IonPAc As11 columns (Dionex), with a length of 25 cm and an internal diameter of 2 mm. The detector used is a UV spectrophotometer equipped with an array of diodes.
# (§11) The whole of the […] is injected after adjustment of the pH to 3 by addition of N HCl. The flow rate chosen is 0.22 ml/min; the column temperature is 40° C.
# (§12) Elution is carried out in gradient mode. The two solutions used are:
# (§13) Solvent A: NaH2PO4 2.5 mM, brought to pH 2.9 by addition of H3PO4
# (§14) Solvent B: NaClO4 1N, NaH2PO4 2.5 mM, brought to pH 3.0 by addition of H3PO4
# (§15) The elution gradient is as follows:
# (§16) T=0 min: % B=3; T=40 min: % B=60; T=60 min: % B=80
# A VLMWH with an average molecular weight of 2500 Da is administered at the target dose of 1.4 mg/kg to human volunteers. Blood samples are withdrawn at the times 0, 0.25 h, 0.5 h, 0.75 h, 1 h, 1.25 h, 1.5 h, 2 h, 2.5 h, 3 h, 3.5 h, 4 h, 4.5 h, 5 h, 6 h, 7 h, 8 h, 9 h, 10 h, 12 h, 14 h and 24 h after administration.
# As the VLMWH used is a complex mixture of oligosaccharides, the study was limited to certain components chosen from this mixture.
# [2] = target: ATIII (Homo sapiens, UniProt P01008); assay: Affinity for ATIII; format: binding
# ATIII, sequence (P01008 33-464, species assumed): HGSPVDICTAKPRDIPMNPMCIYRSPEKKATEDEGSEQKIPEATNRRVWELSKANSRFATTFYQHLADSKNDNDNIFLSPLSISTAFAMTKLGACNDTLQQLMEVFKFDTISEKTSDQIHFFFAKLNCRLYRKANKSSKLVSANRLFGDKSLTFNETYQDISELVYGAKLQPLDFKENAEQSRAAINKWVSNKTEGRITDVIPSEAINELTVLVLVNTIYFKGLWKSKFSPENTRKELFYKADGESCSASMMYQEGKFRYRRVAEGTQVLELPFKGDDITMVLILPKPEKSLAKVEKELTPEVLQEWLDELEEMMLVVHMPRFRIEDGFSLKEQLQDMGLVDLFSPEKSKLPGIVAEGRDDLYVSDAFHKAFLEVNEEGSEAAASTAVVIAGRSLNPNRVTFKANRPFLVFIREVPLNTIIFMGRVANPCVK
# [3] = Monitoring of the plasma concentration of 3 octasaccharides in beagle dogs after subcutaneous administration (plasma filtration + anion-exchange HPLC); format: in vivo, male dogs of the beagle breed; conditions: 0.5 mg/kg each
# Protocol: as §1, §2, §3, §4, §5, §6, §7, §8, §9, §10, §11, §12, §13, §14, §15, §16
# The evolution of a mixture of three octasaccharides in the blood of male dogs of the beagle breed is monitored. These 3 octasaccharides, symbolized ΔIIaIIsIsIs, ΔIsIIaIIsIs and ΔIIaIIsIsIs^1,6-anhydro, are the main affinity octasaccharides of the octasaccharide fractions of Lovenox®.
# The mixture is administered subcutaneously to 3 male dogs of the beagle breed at a target dose with regard to each of these 3 constituents of 0.5 mg/kg. The administration solution is a 0.9% NaCl solution of the mixture of the 3 octasaccharides at the target concentration of 0.5 mg/ml. Blood samples of 5 ml are withdrawn at the times 0, 0.25 h, 0.5 h, 1 h, 2 h, 4 h, 6 h, 8 h, 24 h, 30 h and 48 h after administration. The blood samples withdrawn are collected in tubes containing 400 μl of a CTAD (citrate, theophylline, adenosine, dipyridamole) mixture. After homogenization, the solution is centrifuged at 3000 g at 15° C. for 15 min. The plasma supernatant is recovered and stored at −20° C. until use.
# For the treatment of the plasma before HPLC injection, approximately 1 ml of plasma is withdrawn and weighed, to which 50 μl of a solution of the internal standard at a concentration of approximately 0.02 g/l are added.
# The internal standard is chosen so that it is structurally as close as possible to the products to be analyzed. Its structure is given below.
# The tetrasaccharide used makes it possible to correct the potentional influence of the variations in the extraction yield.
# The plasma is treated and analyzed by HPLC.
compound,measurement,setting,value
CC(=O)NC1C(OC2C(C(=O)O)OC(OC3C(COS(=O)(=O)O)OC(OC4C(C(=O)O)OC(OC5C(COS(=O)(=O)O)OC(OC6C(C(=O)O)OC(OC7C(COS(=O)(=O)O)OC(O)C(NS(=O)(=O)O)C7O)C(OS(=O)(=O)O)C6O)C(NS(=O)(=O)O)C5O)C(OS(=O)(=O)O)C4O)C(NS(=O)(=O)O)C3OS(=O)(=O)O)C(O)C2O)OC(COS(=O)(=O)O)C(OC2OC(C(=O)O)=CC(O)C2O)C1O (centres unmarked) [ΔIIaIIsIsIs],plasma concentration,[1]; 0 h after administration of VLMWH (2500 Da) 1.4 mg/kg,0 nM
same,plasma concentration,[1]; 0.25 h after administration of VLMWH (2500 Da) 1.4 mg/kg,10 nM
same,plasma concentration,[1]; 0.5 h after administration of VLMWH (2500 Da) 1.4 mg/kg,30 nM
same,plasma concentration,[1]; 0.75 h after administration of VLMWH (2500 Da) 1.4 mg/kg,20 nM
same,plasma concentration,[1]; 1 h after administration of VLMWH (2500 Da) 1.4 mg/kg,30 nM
same,plasma concentration,[1]; 1.25 h after administration of VLMWH (2500 Da) 1.4 mg/kg,40 nM
same,plasma concentration,[1]; 1.5 h after administration of VLMWH (2500 Da) 1.4 mg/kg,40 nM
same,plasma concentration,[1]; 2 h after administration of VLMWH (2500 Da) 1.4 mg/kg,40 nM
same,plasma concentration,[1]; 2.5 h after administration of VLMWH (2500 Da) 1.4 mg/kg,30 nM
same,plasma concentration,[1]; 3 h after administration of VLMWH (2500 Da) 1.4 mg/kg,30 nM
same,plasma concentration,[1]; 3.5 h after administration of VLMWH (2500 Da) 1.4 mg/kg,40 nM
same,plasma concentration,[1]; 4 h after administration of VLMWH (2500 Da) 1.4 mg/kg,20 nM
same,plasma concentration,[1]; 4.5 h after administration of VLMWH (2500 Da) 1.4 mg/kg,40 nM
same,plasma concentration,[1]; 5 h after administration of VLMWH (2500 Da) 1.4 mg/kg,30 nM
same,plasma concentration,[1]; 6 h after administration of VLMWH (2500 Da) 1.4 mg/kg,20 nM
same,plasma concentration,[1]; 7 h after administration of VLMWH (2500 Da) 1.4 mg/kg,40 nM
same,plasma concentration,[1]; 8 h after administration of VLMWH (2500 Da) 1.4 mg/kg,20 nM
same,plasma concentration,[1]; 9 h after administration of VLMWH (2500 Da) 1.4 mg/kg,20 nM
same,plasma concentration,[1]; 10 h after administration of VLMWH (2500 Da) 1.4 mg/kg,20 nM
same,plasma concentration,[1]; 12 h after administration of VLMWH (2500 Da) 1.4 mg/kg,30 nM
same,plasma concentration,[1]; 14 h after administration of VLMWH (2500 Da) 1.4 mg/kg,20 nM
same,plasma concentration,[1]; 24 h after administration of VLMWH (2500 Da) 1.4 mg/kg,10 nM
same,affinity for ATIII,[2],high affinity for ATIII
same,plasma concentration,"[3]; Dog 1, 0 h after subcutaneous administration",0 nM
same,plasma concentration,"[3]; Dog 1, 0.25 h after subcutaneous administration",40 nM
same,plasma concentration,"[3]; Dog 1, 0.5 h after subcutaneous administration",180 nM
same,plasma concentration,"[3]; Dog 1, 1 h after subcutaneous administration",330 nM
same,plasma concentration,"[3]; Dog 1, 2 h after subcutaneous administration",590 nM
same,plasma concentration,"[3]; Dog 1, 4 h after subcutaneous administration",470 nM
same,plasma concentration,"[3]; Dog 1, 6 h after subcutaneous administration",360 nM
same,plasma concentration,"[3]; Dog 1, 8 h after subcutaneous administration",280 nM
same,plasma concentration,"[3]; Dog 1, 24 h after subcutaneous administration",40 nM
same,plasma concentration,"[3]; Dog 1, 30 h after subcutaneous administration",20 nM
same,plasma concentration,"[3]; Dog 1, 48 h after subcutaneous administration",0 nM
same,plasma concentration,"[3]; Dog 2, 0 h after subcutaneous administration",0 nM
same,plasma concentration,"[3]; Dog 2, 0.25 h after subcutaneous administration",50 nM
same,plasma concentration,"[3]; Dog 2, 0.5 h after subcutaneous administration",100 nM
same,plasma concentration,"[3]; Dog 2, 1 h after subcutaneous administration",200 nM
same,plasma concentration,"[3]; Dog 2, 2 h after subcutaneous administration",320 nM
same,plasma concentration,"[3]; Dog 2, 4 h after subcutaneous administration",300 nM
same,plasma concentration,"[3]; Dog 2, 6 h after subcutaneous administration",370 nM
same,plasma concentration,"[3]; Dog 2, 8 h after subcutaneous administration",260 nM
same,plasma concentration,"[3]; Dog 2, 24 h after subcutaneous administration",40 nM
same,plasma concentration,"[3]; Dog 2, 30 h after subcutaneous administration",10 nM
same,plasma concentration,"[3]; Dog 2, 48 h after subcutaneous administration",0 nM
same,plasma concentration,"[3]; Dog 3, 0 h after subcutaneous administration",0 nM
same,plasma concentration,"[3]; Dog 3, 0.25 h after subcutaneous administration",60 nM
same,plasma concentration,"[3]; Dog 3, 0.5 h after subcutaneous administration",170 nM
same,plasma concentration,"[3]; Dog 3, 1 h after subcutaneous administration",240 nM
same,plasma concentration,"[3]; Dog 3, 2 h after subcutaneous administration",330 nM
same,plasma concentration,"[3]; Dog 3, 4 h after subcutaneous administration",450 nM
same,plasma concentration,"[3]; Dog 3, 6 h after subcutaneous administration",360 nM
same,plasma concentration,"[3]; Dog 3, 8 h after subcutaneous administration",290 nM
same,plasma concentration,"[3]; Dog 3, 24 h after subcutaneous administration",40 nM
same,plasma concentration,"[3]; Dog 3, 30 h after subcutaneous administration",20 nM
same,plasma concentration,"[3]; Dog 3, 48 h after subcutaneous administration",0 nM
